Each block holds one compound with its values, some of them ahead of it.
Molecular target: T1, human recombinant PDE9 enzyme (Homo sapiens, UniProt O76083)
T1 construct: made in house; host or cells: SF-9 insect cells
Experiment: Phosphodiesterase 9 (PDE9) inhibitory activity, Scintillation Proximity (SPA) assay
Format: biochemical
Details: human recombinant PDE9 from SF-9 cells; 50 nM [3H]cGMP; room temperature, 30 min; additional compounds Ex. 115-228; read-out: G5678A (U):IC50
How it was run: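 Recombinant human PDE9 from SF-9 cell lysate supernatant, diluted so that ≤20% of [3H]cGMP substrate was hydrolysed to 5′GMP. Reaction started with enzyme and run 30 min at room temperature with 2% DMSO final. SPA beads were counted after >300 min; background came from a high concentration of a PDE inhibitor.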

T1 sequence (O76083 whole entry): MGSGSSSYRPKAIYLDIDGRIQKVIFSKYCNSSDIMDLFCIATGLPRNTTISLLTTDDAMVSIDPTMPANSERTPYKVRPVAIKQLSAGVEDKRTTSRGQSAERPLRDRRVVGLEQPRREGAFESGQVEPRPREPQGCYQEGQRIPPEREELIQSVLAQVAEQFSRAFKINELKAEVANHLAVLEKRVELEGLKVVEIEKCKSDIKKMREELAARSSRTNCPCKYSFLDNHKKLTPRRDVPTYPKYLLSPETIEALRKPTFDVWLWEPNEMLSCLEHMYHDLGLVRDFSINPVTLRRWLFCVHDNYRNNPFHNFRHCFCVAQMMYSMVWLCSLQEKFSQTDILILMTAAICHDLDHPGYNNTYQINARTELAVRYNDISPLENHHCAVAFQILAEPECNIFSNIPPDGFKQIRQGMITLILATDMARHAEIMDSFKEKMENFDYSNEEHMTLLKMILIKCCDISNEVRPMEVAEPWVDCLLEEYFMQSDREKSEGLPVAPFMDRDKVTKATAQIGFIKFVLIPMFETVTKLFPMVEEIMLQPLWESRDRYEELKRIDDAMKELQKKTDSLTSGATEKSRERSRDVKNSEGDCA

SMILES: C[C@@H]1CN(Cc2ccc3c(c2)CC(C)(C)O3)C[C@H]1c1nc2c(cnn2C2CCCC2)c(=O)[nH]1 (racemic) [Example 175, 1-cyclopentyl-6-{(3,4-trans)-1-[(2,2-dimethyl-2,3-dihydro-1-benzofuran-5-yl)methyl]-4-methylpyrrolidin-3-yl}-1,5-dihydro-4H-pyrazolo[3,4-d]pyrimidin-4-one]
IC50: 0.0748 µM

SMILES: COc1ccc(CN2C[C@@H](C)[C@H](c3nc4c(cnn4C4CCCC4)c(=O)[nH]3)C2)cc1OC (racemic) [Example 176, 1-cyclopentyl-6-[(3,4-trans)-1-(3,4-dimethoxybenzyl)-4-methylpyrrolidin-3-yl]-1,5-dihydro-4H-pyrazolo[3,4-d]pyrimidin-4-one]
IC50: 0.0271 µM

SMILES: Cc1cnc(CN2C[C@@H](C)[C@H](c3nc4c(cnn4C4CCCC4)c(=O)[nH]3)C2)cn1 (racemic) [Example 177, 1-cyclopentyl-6-{(3,4-trans)-4-methyl-1-[(5-methylpyrazin-2-yl)methyl]pyrrolidin-3-yl)-1,5-dihydro-4H-pyrazolo[3,4-d]pyrimidin-4-one]
IC50: 0.0422 µM

SMILES: C[C@@H]1CN(Cc2cn3ccccc3n2)C[C@H]1c1nc2c(cnn2C2CCCC2)c(=O)[nH]1 (racemic) [Example 178, 1-cyclopentyl-6-[(3,4-trans)-1-(imidazo[1,2-a]pyridin-2-ylmethyl)-4-methylpyrrolidin-3-yl]-1,5-dihydro-4H-pyrazolo[3,4-d]pyrimidin-4-one]
IC50: 0.0447 µM

SMILES: C[C@@H]1CN(Cc2coc(-c3ccccc3)n2)C[C@H]1c1nc2c(cnn2C2CCCC2)c(=O)[nH]1 (racemic) [Example 179, 1-cyclopentyl-6-{(3,4-trans)-4-methyl-1-[(2-phenyl-1,3-oxazol-4-yl)methyl]pyrrolidin-3-yl}-1,5-dihydro-4H-pyrazolo[3,4-d]pyrimidin-4-one]
IC50: 0.0472 µM

Further lines, results first:

IC50: 0.134 µM
SMILES: CC(C)Oc1ccccc1CN1C[C@@H](C)[C@H](c2nc3c(cnn3C3CCCC3)c(=O)[nH]2)C1 (racemic) [Example 181, 1-cyclopentyl-6-[(3,4-trans)-1-(2-isopropoxybenzyl)-4-methylpyrrolidin-3-yl]-1,5-dihydro-4H-pyrazolo[3,4-d]pyrimidin-4-one]

IC50: 0.0225 µM
SMILES: C[C@@H]1CN(Cc2cc3ccccc3nn2)C[C@H]1c1nc2c(cnn2C2CCCC2)c(=O)[nH]1 (racemic) [Example 182, 6-[(3,4-trans)-1-(cinnolin-3-ylmethyl)-4-methylpyrrolidin-3-yl]-1-cyclopentyl-1,5-dihydro-4H-pyrazalo[3,4-d]pyrimidin-4-one]

IC50: 0.0298 µM
SMILES: C[C@@H]1CN(Cc2cccc(OC(F)F)c2)C[C@H]1c1nc2c(cnn2C2CCCC2)c(=O)[nH]1 (racemic) [Example 183, 1-cyclopentyl-6-{(3,4-trans)-1-[3-(difluoromethoxy)benzyl]-4-methylpyrrolidin-3-yl}-1,5-dihydro-4H-pyrazolo[3,4-d]pyrimidin-4-one]

IC50: 0.09 µM
SMILES: Cc1cc(CN2C[C@@H](C)[C@H](c3nc4c(cnn4C4CCCC4)c(=O)[nH]3)C2)ccc1F (racemic) [Example 184, 1-cyclopentyl-6-[(3,4-trans)-1-(4-fluoro-3-methylbenzyl)-4-methylpyrrolidin-3-yl]-1,5-dihydro-4H-pyrazolo[3,4-d]pyrimidin-4-one]

IC50: 0.0335 µM
SMILES: C[C@@H]1CN(Cc2ccc(-n3cccn3)cc2)C[C@H]1c1nc2c(cnn2C2CCCC2)c(=O)[nH]1 (racemic) [Example 185, 1-cyclopentyl-6-{(3,4-trans)-4-methyl-1-[4-(1H-pyrazol-1-yl)benzyl]pyrrolidin-3-yl}-1,5-dihydro-4H-pyrazolo[3,4-d]pyrimidin-4-one]

IC50: 0.155 µM
SMILES: Cc1ccn2c(CN3C[C@@H](C)[C@H](c4nc5c(cnn5C5CCCC5)c(=O)[nH]4)C3)c(C)nc2c1 (racemic) [Example 186, 1-cyclopentyl-6-{(3,4-trans)-1-[(2,7-dimethylimidazo[1,2-a]pyridin-3-yl)methyl]-4-methylpyrrolidin-3-yl}-1,5-dihydro-4H-pyrazolo[3,4-d]pyrimidin-4-one]
